The record followed here is patent US20260023087A1, “A Novel Chemogenetic Tool Permitting Modulation of Intracellular pH” (ISTANBUL MEDIPOL UNIVERSITESI, priority 2023, published 2026).

The target in one assay is T1, DsRed-stDCyD (Salmonella typhimurium, UniProt Q8ZNT7).
T1 construct: expressed in transfected cells; host or cells: HEK293 / HEK293T
Description: SypHer3s live-cell imaging of intracellular pH in HEK293T cells expressing pH-Control, substrates administered. It is filed as cell-based, human. To be noted: for selectivity test: enzyme response in comparison to βCDA: FIG. 1f; for ability to acidify cell compartments: cells expressing stDCyD. As to the method: (§1) For live-cell imaging experiments, a HEPES-buffered physiological solution was used consisting of 2 mM CaCl2, 5 mM KCl, 138 mM NaCl, 1 mM MgCl2, 10 mM HEPES, 10 mM D-Glucose, and pH was adjusted to 7.43 using 1 M NaOH. For experiments with nigericin (N7143, Merck) and monensin (M5273, Merck), imaging buffered contained 5 mM KCl, 138 mM NaCl, 1 mM MgCl2, 20 mM HEPES, 10 mM D-Glucose, 0.2 mM EGTA and pH was adjusted to the desired value using either 1 M NaOH or 1M HCl. To prepare β-Chloro-D-alanine solutions, the powder was dissolved in imaging buffer and the pH was readjusted to 7.43.
(§2) Characterization studies have been performed in cultured human embryonic kidney cells (HEK293), grown in a high-glucose (4.5 g/L) complete medium including 10% FBS and 100 μg/ml streptomycin and 100 U/ml penicillin in a humidified incubator (37° C., 5% CO2). 24 hours before transfection, cells were seeded (˜3×10^5 cells per well) on a 30 mm glass coverslips No.1 (Glaswarenfabrik Karl Knecht Sondheim, Germany). At ˜70-80% confluency, cells were co-transfected with CMV-driven mammalian expression vectors (pLenti-MP2) encoding for differential targeted SypHer3s or DsRed-stDCyD enzymes using PolyJet transfection reagent according to the manufacturer's instructions. All imaging experiments were performed 24 h after transfection. HEK293T cells were cultured up to passage 30.
Widefield imaging experiments were performed on a Zeiss Axio Observer.Z1/7 (Carl Zeiss AG, Oberkochen, Germany) equipped with an LED light source Colibri 7 (423/44 nm, 469/38 nm, 555/30), PlanApochromat 20x/0.8 dry objective, Plan-Apochromat 40x/1.4 oil immersion objective, a monochrome CCD camera Axiocam 503. A custom-made pump-driven perfusion system was used to administrate and withdraw substrates to cells placed in a metal perfusion chamber (NGFI, Graz, Austria). SypHer signals were imaged by alternately exciting cells using a motorized dual-filter wheel equipped with beam splitters (FT455 (for SypHer low, F420) and FT495 (for SypHer high, F490)). Emissions were alternately collected using a bandpass filter (BP 525/50). DsRed-stDyCD emission was collected using the filter combinations FT570 (BS) and emission filter 605/70. During live-imaging data acquisition was performed using Zen Blue 3.1 Pro software (Carl Zeiss AG, Oberkochen, Germany). Confocal imaging was performed using a laser scanning confocal microscope LSM 800 (Zeiss, Germany) equipped with a Plan-Apochromat 40x/1.3 DIC (UV) VIS-IS oil immersion objective. SypHer biosensors were excited with a 488 nm and 405 nm laser, and emissions were collected using a 509 nm filter system. SypHer signals were acquired with an A GaAsP-PMT detector and 400-565 nm filter using a Multialkali-PMT detector. DsRed-stDCyD constructs were excited using a 561 nm laser, and the emission wavelength was captured between 616 and 700 nm. The digital detector gain for all channels was set at 1; detector gain was applied between 500 and 1000 V. Laser intensities were set between 0.90% and 0.95%, and the pinhole was set between 29 and 32 μm according to the expression level of the fluorescent proteins. Bright-field mode was imaged using a photodiode detector. Zen Blue 3.1 software (Zeiss, Germany) was used to determine regions of interest.

The test system of assay [1] is HEK293T cells. Description: Overcorrection of intracellular pH after acute acidification, with and without monensin and nigericin. The class given is cell-based, human. Particulars: 10 μM nigericin and 10 μM monensin together. As to the method: FIG. 7. Overcorrection of intracellular pH levels following acute acidification. (left) Real-time traces of HEK293T cells expressing SypHer and pH-Control in response to 1 mM βCDA in the presence (pink curve and (right) bars, n= 3/15) and absence (green curve and (right) bars n= 3/13) 10 μM nigericin and 10 μM monensin that permeabilize the plasma membrane. Student's t-test has been applied.
as §1
Widefield imaging experiments were performed on a Zeiss Axio Observer.Z1/7 (Carl Zeiss AG, Oberkochen, Germany) equipped with an LED light source Colibri 7 (423/44 nm, 469/38 nm, 555/30), PlanApochromat 20x/0.8 dry objective, Plan-Apochromat 40x/1.4 oil immersion objective, a monochrome CCD camera Axiocam 503. […]

Assay [2] concerns HEK293T cells. Kind of assay: SypHer3s live-cell imaging of intracellular pH in cells without the enzyme. It is filed as cell-based, human. The procedure: as §1
as §2, with “30. […]” for “30.”

Assay [3] concerns mouse primary dorsal root ganglion (DRG) neurons. Description: SypHer3s imaging in primary DRG neurons expressing pH-Control. It is filed as cell-based. To be noted: different concentrations (10 or 1 mM, FIG. 1h). As to the method: (§3) Primary Neuron Culture: WT C57BL/6 mice were euthanized via cervical dislocation. Bilateral DRGs from all segments were dissected and then put in an ice-cold RPMI 1640 medium (R0883, Gibco). For enzymatic dissociation, ganglia were incubated with 100 U/mL collagenases (C9407, Sigma) in a neural medium containing 2% B27 (17504-044, Gibco), 2 mM Glutamax-I (35050-61, Gibco), 100 U penicillin, and […] (15140-122, Gibco) in Neural Basal Medium (NBA, 10888-022, Gibco) at 37C, 5% CO2. Following a 40 min incubation time, the medium containing collagenase was removed, and the ganglia were washed using Hank's buffered salt solution (H9269, Sigma). The ganglia were further enzymatically dissociated using 1 mg/mL trypsin (25300-054, Gibco) in the neural medium for 15 min at 37° C., 5% CO2. At the end of incubation, […] DNAse (D4513, Sigma) was added to the trypsin solution cell suspension to inhibit free DNA fragments, and the tissues were triturated by pipetting to obtain single cells. 30 min after incubation at 37° C., 5% CO2, the cell suspension was spun at 120 g for 3 min and resuspended neural medium supplemented with 10% fetal calf serum and […] trypsin inhibitor (T6522, Sigma) to inhibit enzymatic activity. […]

Assay [4] has the same test system. Kind of assay: Membrane potential imaging with voltage sensor ASAP2s in DRG neurons co-expressing pH-Control. The class given is cell-based. To be noted: 10 mM βCDA versus high extracellular potassium (50 mM). The procedure: as §3

T1 sequence (Q8ZNT7 whole entry, added parts left off): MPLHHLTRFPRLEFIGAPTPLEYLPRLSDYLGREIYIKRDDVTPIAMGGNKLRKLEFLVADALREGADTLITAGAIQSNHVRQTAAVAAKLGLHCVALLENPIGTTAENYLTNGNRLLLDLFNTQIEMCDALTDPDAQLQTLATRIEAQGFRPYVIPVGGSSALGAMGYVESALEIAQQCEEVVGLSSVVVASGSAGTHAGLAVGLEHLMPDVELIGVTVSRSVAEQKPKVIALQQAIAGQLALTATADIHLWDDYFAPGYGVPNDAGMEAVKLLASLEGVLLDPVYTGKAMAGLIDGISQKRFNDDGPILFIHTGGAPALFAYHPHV

As to `N[C@H](CS)C(=O)O` [D-Cysteine], at DsRed-stDCyD (10 mM), the “decrease in pHi” value was “marginal decrease in pHi”.

On to `C[C@@H](N)C(=O)O` [D-alanine], for which, at DsRed-stDCyD, the “selectivity test: enzyme response in comparison to βCDA” value is “remained agnostic” and the “ability to acidify cell compartments” value is recorded as “not”.

Turning to `CC[C@@]1([C@@H]2O[C@@H]([C@H]3O[C@@](O)(CO)[C@H](C)C[C@@H]3C)C[C@@H]2C)CC[C@H]([C@]2(C)CC[C@]3(C[C@H](O)[C@@H](C)[C@@H]([C@@H](C)[C@@H](OC)[C@H](C)C(=O)O)O3)O2)O1` [monensin], the “intracellular pH overcorrection after withdrawal of 1 mM βCDA” value in the assay on HEK293T cells [1] is reported as “diminished”.

On to `CO[C@@H]1C[C@@H](C[C@H]2CC[C@H](C)[C@H]([C@@H](C)C(=O)O)O2)O[C@]2(O[C@](C)([C@H]3CC[C@@](C)([C@@H]4O[C@@H]([C@H]5O[C@@](O)(CO)[C@H](C)C[C@@H]5C)C[C@@H]4C)O3)C[C@H]2C)[C@@H]1C` [nigericin], for which the “intracellular pH overcorrection after withdrawal of 1 mM βCDA” value in the assay with HEK293T cells [1] was “diminished”.

Consider `N[C@H](CCl)C(=O)O` [βCDA, β-chloro-D-alanine], for which the “biosensor signal after withdrawal of substrate” value on DsRed-stDCyD (after recovery, indicates cellular alkalization (FIGS. 1c, 1g, 5a)) was “overshot the baseline”. In addition, the “SypHer response to different levels of substrate” value on DsRed-stDCyD (cells expressing pH-Control, constitutive administration of different levels (FIG. 1e)) was “concentration-dependent and fully reversible SypHer response”. Besides, the “intracellular acidification documented by SypHer3s” value on DsRed-stDCyD (cells expressing pH-Control, high concentrations of βCDA (13.4 mM, FIG. 1c)) is “robust intracellular acidification”. Also, the “ability to acidify cell compartments” value at DsRed-stDCyD is given as “can acidify cell compartments”. The “SypHer response of cells only expressing SypHer” value with HEK293T cells [2] (different levels of substrate (FIG. 1e, right panel)) is reported as “remained unresponsive”. Besides, the “SypHer3s response of wild-type cells without the enzyme” value in the assay with HEK293T cells [2] (same high-concentration treatment (13.4 mM, FIG. 1c)) is on record as “marginal response”. In addition, in assay [3], the “SypHer3s signals in DRG neurons” value is reported as “robust SypHer3s signals”. The “depolarization of membrane potential (ASAP2s)” value in assay [4] is “depolarized primary neurons even stronger than high extracellular potassium”.

For `N[C@@H](CCl)C(=O)O` [βCLA, β-chloro-L-alanine], the “selectivity test: enzyme response in comparison to βCDA” value at DsRed-stDCyD is given as “marginal responses”.
